In patent US20230365576A1, “BRM Targeting Compounds And Associated Methods Of Use” (Prelude Therapeutics Incorporated, priority 2022, published 2023):

What was measured:
SMARCA2 = biological target: T1, SMARCA2 (Homo sapiens, UniProt P51531); experiment: SMARCA2 HiBiT degradation assay in HeLa cells; type: cell-based; details: 18 hours; for DC50: read-out: SMARCA2 IC50; for Dmax: HeLa
T1 construct: SMARCA2-HiBiT knock-in Hela monoclonal cell (CS302366); host or cells: HeLa (CRISPR HiBiT knock-in monoclonal line, heterozygous)
T1 sequence (P51531 whole entry): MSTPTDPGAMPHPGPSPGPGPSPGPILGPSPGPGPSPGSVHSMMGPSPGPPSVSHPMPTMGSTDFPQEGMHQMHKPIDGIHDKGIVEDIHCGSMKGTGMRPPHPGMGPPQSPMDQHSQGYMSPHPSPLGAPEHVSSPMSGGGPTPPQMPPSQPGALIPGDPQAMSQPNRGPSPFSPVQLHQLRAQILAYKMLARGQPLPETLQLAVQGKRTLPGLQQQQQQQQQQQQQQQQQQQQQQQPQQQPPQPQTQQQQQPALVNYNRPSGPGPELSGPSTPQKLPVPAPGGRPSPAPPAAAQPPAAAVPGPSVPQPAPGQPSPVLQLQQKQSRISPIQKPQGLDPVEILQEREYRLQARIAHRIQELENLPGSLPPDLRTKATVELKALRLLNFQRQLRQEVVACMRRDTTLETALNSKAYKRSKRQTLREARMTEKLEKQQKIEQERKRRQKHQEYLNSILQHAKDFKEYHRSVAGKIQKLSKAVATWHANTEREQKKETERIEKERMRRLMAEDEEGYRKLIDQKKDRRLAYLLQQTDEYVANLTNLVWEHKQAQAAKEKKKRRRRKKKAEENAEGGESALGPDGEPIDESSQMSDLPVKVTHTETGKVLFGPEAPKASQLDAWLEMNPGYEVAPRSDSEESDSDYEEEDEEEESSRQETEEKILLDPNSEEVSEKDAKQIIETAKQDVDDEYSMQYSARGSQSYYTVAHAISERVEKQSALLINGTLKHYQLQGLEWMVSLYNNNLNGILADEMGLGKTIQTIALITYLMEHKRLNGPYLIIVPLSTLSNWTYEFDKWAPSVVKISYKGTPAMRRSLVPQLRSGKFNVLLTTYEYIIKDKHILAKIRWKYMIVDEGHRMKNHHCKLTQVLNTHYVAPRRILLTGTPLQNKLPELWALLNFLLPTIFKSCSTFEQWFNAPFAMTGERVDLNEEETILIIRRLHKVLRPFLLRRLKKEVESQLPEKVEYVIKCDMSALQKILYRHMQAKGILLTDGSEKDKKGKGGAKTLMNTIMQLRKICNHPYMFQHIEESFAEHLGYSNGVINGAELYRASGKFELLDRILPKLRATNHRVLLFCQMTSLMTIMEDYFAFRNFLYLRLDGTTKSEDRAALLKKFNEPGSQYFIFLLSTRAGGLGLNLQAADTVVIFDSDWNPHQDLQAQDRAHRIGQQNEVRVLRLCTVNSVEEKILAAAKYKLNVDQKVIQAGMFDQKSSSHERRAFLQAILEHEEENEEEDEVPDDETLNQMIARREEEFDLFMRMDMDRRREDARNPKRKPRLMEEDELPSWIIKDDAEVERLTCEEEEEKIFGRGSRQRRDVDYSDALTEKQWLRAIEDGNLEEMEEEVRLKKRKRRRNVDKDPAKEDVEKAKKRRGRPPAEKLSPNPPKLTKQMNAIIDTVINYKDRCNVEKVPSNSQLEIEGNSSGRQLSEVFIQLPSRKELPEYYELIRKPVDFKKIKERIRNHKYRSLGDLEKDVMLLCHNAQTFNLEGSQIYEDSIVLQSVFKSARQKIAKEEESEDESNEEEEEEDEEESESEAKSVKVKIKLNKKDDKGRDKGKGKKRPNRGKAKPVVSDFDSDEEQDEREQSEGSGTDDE
Method: (§1) Example A. SMARCA2 HiBiT and SMARCA4 HiBiT Degradation Assay
(§2) Preparation of SMARCA2/4-HiBiT Knock-In Cells
(§3) HiBiT peptide knock-in of SMARCA2 in LgBiT expressing HEK293T cells was performed by CRISPR-mediated tagging system as described Promega. The homozygous HiBiT knock-in on c-terminus SMARCA2 was confirmed by sanger sequence. SMARCA2-HiBiT knock-in Hela monoclonal cell (CS302366) and SMARCA4-HiBiT knock-in Hela monoclonal cell (CS3023226) were purchased from Promega. The heterozygous HiBiT-knock-in was confirmed by sanger sequence in both SMARCA2-HiBiT and SMARCA4-HiBiT monoclonal cells.
(§4) SMARCA2 HiBiT and SMARCA4 HiBiT Degradation Assay in HeLa Cells
(§5) Compounds were dissolved in DMSO to make 10 mM stock and 3-fold series dilutions were further conducted keeping the highest concentration 10 μM. NCIH1693 and NCIH520 cells were maintained in PRMI 1640 medium (Corning Cellgro, Catalog #:10-040-CV) supplemented with 10% v/v FBS (GE Healthcare, Catalog #: SH30910.03) by splitting 1:3 twice a week.
(§6) Dispense 10 ul aliquot of prepared Hela-SMARCA2-HiBiT or Hela-SMARCA4-HiBiT cells (1:1 ratio of cells:Trypan Blue (#1450013, Bio-Rad)) onto cell counting slide (#145-0011, Bio-Rad) and obtain cell density and cell viability using cell counter (TC20, Bio-Rad). Remove appropriate volume of resuspended cells from culture flask to accommodate 2500 cells/well @ 20 μL/well. Transfer Hela-HiBiT cells to 50 mL conical (#430290, Corning). Spin down at 1000 rpm for 5 min using tabletop centrifuge (SPINCHRON 15, Beckman). Discard supernatant and resuspend cell pellet in modified EMEM (#30-2003, ATCC) cell culture media containing 10% FBS (F2422-500ML, Sigma), and 1X Penicillin/Streptomycin (200 g/L) (30-002-CI, Corning) to a cell density of 125,000 cells/mL. Dispense 20 μL of resuspended Hela-HiBit cells per well in 384-well TC treated plate (#12-565-343, Thermo Scientific) using standard cassette (#50950372, Thermo Scientific) on Multidrop Combi (#5840310, Thermo Scientific) inside laminar flow cabinet. Dispense test compounds onto plates using digital liquid dispenser (D300E, Tecan). Incubate plates in humidified tissue culture incubator @37° C. for 18 hours. Add 20 μL of prepared Nano-Glo® HiBiT Lytic detection buffer (N3050, Promega) to each well of 384-well plate using small tube cassette (#24073295, Thermo Scientific) on Multidrop Combi, incubate @ RT for 30-60 min. Read plates on microplate reader (Envision 2105, PerkinElmer) using 384 well Ultra-Sensitive luminescence mode. Raw data files and compound information reports are swept into centralized data lake and deconvoluted using automated scripts designed by TetraScience, Inc. Data analysis, curve-fitting and reporting done in Dotmatics Informatics Suite using Screening Ultra module.

SMARCA4 = biological target: T2, SMARCA4 (Homo sapiens, UniProt P51532); experiment: SMARCA4 HiBiT degradation assay in HeLa cells; type: cell-based; details: 18 hours; for Dmax: HeLa
T2 construct: SMARCA4-HiBiT knock-in Hela monoclonal cell (CS3023226) were purchased from Promega; host or cells: HeLa (CRISPR HiBiT knock-in monoclonal line, heterozygous)
T2 sequence (P51532 whole entry): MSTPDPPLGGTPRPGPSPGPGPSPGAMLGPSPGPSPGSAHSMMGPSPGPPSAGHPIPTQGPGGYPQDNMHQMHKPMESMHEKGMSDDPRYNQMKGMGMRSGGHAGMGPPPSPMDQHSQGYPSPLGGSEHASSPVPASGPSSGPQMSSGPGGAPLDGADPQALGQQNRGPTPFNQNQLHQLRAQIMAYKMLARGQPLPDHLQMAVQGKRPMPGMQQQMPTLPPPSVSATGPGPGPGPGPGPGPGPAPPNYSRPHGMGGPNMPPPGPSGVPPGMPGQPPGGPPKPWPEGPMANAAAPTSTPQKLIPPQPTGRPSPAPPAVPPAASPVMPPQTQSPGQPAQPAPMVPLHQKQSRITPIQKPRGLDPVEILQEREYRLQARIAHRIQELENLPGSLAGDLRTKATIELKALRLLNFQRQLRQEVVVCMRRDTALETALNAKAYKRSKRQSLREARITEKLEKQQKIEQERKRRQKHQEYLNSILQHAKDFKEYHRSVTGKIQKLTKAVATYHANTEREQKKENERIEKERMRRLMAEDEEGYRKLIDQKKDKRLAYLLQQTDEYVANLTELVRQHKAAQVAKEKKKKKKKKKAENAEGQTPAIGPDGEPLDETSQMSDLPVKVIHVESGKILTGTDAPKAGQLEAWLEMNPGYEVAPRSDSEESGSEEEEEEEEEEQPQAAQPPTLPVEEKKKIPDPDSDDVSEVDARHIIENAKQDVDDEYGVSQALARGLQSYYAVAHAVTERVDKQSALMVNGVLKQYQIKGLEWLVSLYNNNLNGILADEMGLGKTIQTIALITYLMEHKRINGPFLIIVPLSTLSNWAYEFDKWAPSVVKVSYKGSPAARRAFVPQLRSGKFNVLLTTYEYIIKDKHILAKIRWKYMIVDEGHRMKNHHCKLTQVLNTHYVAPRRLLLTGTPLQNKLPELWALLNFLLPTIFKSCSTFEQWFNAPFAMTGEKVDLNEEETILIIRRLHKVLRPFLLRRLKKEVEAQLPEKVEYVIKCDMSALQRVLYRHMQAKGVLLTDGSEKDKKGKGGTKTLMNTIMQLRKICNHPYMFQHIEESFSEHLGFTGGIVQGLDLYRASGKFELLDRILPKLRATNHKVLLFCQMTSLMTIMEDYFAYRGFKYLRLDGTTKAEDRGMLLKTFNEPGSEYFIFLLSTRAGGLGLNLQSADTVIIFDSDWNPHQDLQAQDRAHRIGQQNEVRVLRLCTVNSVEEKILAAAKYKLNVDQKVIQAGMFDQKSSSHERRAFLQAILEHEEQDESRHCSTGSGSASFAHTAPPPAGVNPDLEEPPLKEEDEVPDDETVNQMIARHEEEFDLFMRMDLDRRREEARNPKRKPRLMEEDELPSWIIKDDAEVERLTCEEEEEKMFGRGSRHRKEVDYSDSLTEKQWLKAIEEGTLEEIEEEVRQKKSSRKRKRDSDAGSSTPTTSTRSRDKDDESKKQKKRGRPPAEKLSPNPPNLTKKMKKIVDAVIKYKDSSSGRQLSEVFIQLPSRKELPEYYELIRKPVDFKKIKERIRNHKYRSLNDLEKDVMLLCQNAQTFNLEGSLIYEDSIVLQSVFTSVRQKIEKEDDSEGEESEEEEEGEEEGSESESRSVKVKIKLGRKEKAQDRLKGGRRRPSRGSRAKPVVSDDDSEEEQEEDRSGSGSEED
Method: as §1, §2, §3, §4, §5, §6

Compound | DC50 (SMARCA2) [nM] | Dmax (SMARCA2) [%] | DC50 (SMARCA4) [nM] | Dmax (SMARCA4) [%] | SMARCA2 DMax % (SMARCA2) | SMARCA4 DMax % (SMARCA4)
C[C@@H]1CN(CC2CCN(c3ccc4c(c3)C(=O)N([C@H]3CCC(=O)NC3=O)C4)CC2)[C@@H](C)CN1C(=O)N1CCN2c3cc(-c4cccc(F)c4O)nnc3NC[C@]2(C(F)F)C1 [Example 68, (S)-3-(6-(4-(((2S,5R)-4-((R)-6a-(difluoromethyl)-2-(3-fluoro-2-hydroxyphenyl)-6,6a,7,8,9,10-hexahydro-5H-pyrazino[1′,2′:4,5]pyrazino[2,3-c]pyridazine-8-carbonyl)-2,5-dimethylpiperazin-1-yl)methyl)piperidin-1-yl)-1-oxoisoindolin-2-yl)piperidine-2,6-dione] | < 100 | > 75 | < 100 | 50 to 75 |  | 
O=C1CCC(N2Cc3ccc(N4CCC(CN5C[C@@H]6[C@H](C5)[C@H]6CN5CCN6c7cc(-c8cc(F)cc(F)c8O)nnc7NC[C@H]6C5)C(F)(F)C4)cc3C2=O)C(=O)N1 (single isomer, unassigned) [Example 41] | < 100 |  | < 100 |  | A (A=Dmax>75%) | B (B=50%<Dmax≤75%)
C[C@@H]1CN(CC2CCN(c3ccc4c(c3)C(=O)N(C3CCC(=O)NC3=O)C4)CC2)[C@@H](C)CN1C(=O)N1CCN2c3cc(-c4cccc(F)c4O)nnc3NCC2(C)C1 (single isomer, unassigned) [Example 91] | < 100 | > 75 | 100 to 1000 | < 50 |  | 
O=C1CCC(N2Cc3cc(N4CC[C@@H](CN5CCC(CN6CCN7c8cc(-c9cc(F)cc(F)c9O)nnc8NC[C@H]7C6)CC5)C4)ccc3C2=O)C(=O)N1 (stereo partly drawn) [Example 53, 3-(5-((S)-3-((4-(((S)-2-(3,5-difluoro-2-hydroxyphenyl)-5,6,6a,7,9,10-hexahydro-8H-pyrazino[1′,2′:4,5]pyrazino[2,3-c]pyridazin-8-yl)methyl)piperidin-1-yl)methyl)pyrrolidin-1-yl)-1-oxoisoindolin-2-yl)piperidine-2,6-dione] | < 100 | > 75 | < 100 | 50 to 75 |  | 
CC1(C)CC(CN2CCN(c3ccc4c(c3)C(=O)N([C@H]3CCC(=O)NC3=O)C4)CC2)CCN1C(=O)N1CCN2c3cc(-c4cccc(F)c4O)nnc3NCC2(C)C1 (single isomer, unassigned) [Example 123] | < 100 | > 75 | < 100 |  |  | A (A=Dmax>75%)
CCC12CNc3nnc(-c4cccc(F)c4O)cc3N1CCN(C(=O)N1[C@H](C)CN(CC3CCN(c4ccc5c(c4)C(=O)N(C4CCC(=O)NC4=O)C5)CC3)C[C@H]1C)C2 (single isomer, unassigned) [Example 82] | < 100 | > 75 | < 100 |  |  | A (A=Dmax>75%)
CCC12CNc3nnc(-c4cccc(F)c4O)cc3N1CCN(C(=O)N1[C@H](C)CN(CC3CCN(c4ccc5c(c4)C(=O)N(C4CCC(=O)NC4=O)C5)CC3)C[C@@H]1C)C2 (single isomer, unassigned) [Example 60] | < 100 | > 75 | < 100 | > 75 |  | 
CC1(C)CN(CC2CCN(c3ccc4c(c3)C(=O)N([C@H]3CCC(=O)NC3=O)C4)CC2)CCN1C(=O)N1CCN2c3cc(-c4cccc(F)c4O)nnc3NCC2(C(F)(F)F)C1 (single isomer, unassigned) [Example 100] | < 100 |  | < 100 | 50 to 75 | A (A=Dmax>75%) | 
C[C@@H]1C[C@H](CN2CCN(c3ccc4c(c3)C(=O)N([C@H]3CCC(=O)NC3=O)C4)CC2)C[C@H](C)N1C(=O)N1CCN2c3cc(-c4cccc(F)c4O)nnc3NCC2(C(F)(F)F)C1 (single isomer, unassigned) [Example 98] | < 100 | > 75 | < 100 |  |  | A (A=Dmax>75%)
CCC12CNc3nnc(-c4cccc(F)c4O)cc3N1CCN(C(=O)N1CCN(CC3CCN(c4ccc5c(c4)C(=O)N(C4CCC(=O)NC4=O)C5=O)CC3)CC1(C)C)C2 (mixture of isomers) [Example 32, 2-(2,6-dioxopiperidin-3-yl)-5-(4-((4-(6a-ethyl-2-(3-fluoro-2-hydroxyphenyl)-6,6a,7,8,9,10-hexahydro-5H-pyrazino[1′,2′:4,5]pyrazino[2,3-c]pyridazine-8-carbonyl)-3,3-dimethylpiperazin-1-yl)methyl)piperidin-1-yl)isoindoline-1,3-dione] | < 100 | 50 to 75 | < 100 | < 50 |  | 
C[C@@H]1C[C@H](CN2CCN(c3ccc4c(c3)C(=O)N([C@H]3CCC(=O)NC3=O)C4)CC2)C[C@H](C)N1C(=O)N1CCN2c3cc(-c4cccc(F)c4O)nnc3NCC2(C)C1 (single isomer, unassigned) [Example 120] | < 100 | > 75 | < 100 | > 75 |  | 
O=C1CCC(N2Cc3ccc(N4CCN(C[C@H]5CC[C@@H](CN6CCN7c8cc(-c9cc(F)cc(F)c9O)nnc8NC[C@H]7C6)CC5)CC4)cc3C2=O)C(=O)N1 (stereo partly drawn) [Example 56, 3-(6-(4-(((1R,4s)-4-(((S)-2-(3,5-difluoro-2-hydroxyphenyl)-5,6,6a,7,9,10-hexahydro-8H-pyrazino[1′,2′:4,5]pyrazino[2,3-c]pyridazin-8-yl)methyl)cyclohexyl)methyl)piperazin-1-yl)-1-oxoisoindolin-2-yl)piperidine-2,6-dione] | < 100 | > 75 | < 100 | > 75 |  | 
C[C@@H]1CN(CC2CCN(c3ccc4c(c3)C(=O)N([C@H]3CCC(=O)NC3=O)C4)CC2)C[C@@H](C)N1C(=O)N1CCN2c3cc(-c4cccc(F)c4O)nnc3NCC2(C(F)(F)F)C1 (single isomer, unassigned) [Example 96] | < 100 | > 75 | < 100 |  |  | A (A=Dmax>75%)
C[C@H]1CN2c3cc(-c4cc(F)cc(F)c4O)nnc3NC[C@H]2CN1C(=O)N1CCN(CC2CCN(c3ccc4c(c3)C(=O)N(C3CCC(=O)NC3=O)C4)CC2)CC1(C)C (stereo partly drawn) [Example 25, 3-(6-(4-((4-((6aS,9S)-2-(3,5-difluoro-2-hydroxyphenyl)-9-methyl-6,6a,7,8,9,10-hexahydro-5H-pyrazino[1′,2′:4,5]pyrazino[2,3-c]pyridazine-8-carbonyl)-3,3-dimethylpiperazin-1-yl)methyl)piperidin-1-yl)-1-oxoisoindolin-2-yl)piperidine-2,6-dione] | < 100 | > 75 | < 100 | < 50 |  | 
O=C1CCC(N2Cc3ccc(N4CCOC(CN5CC6C(C5)C6CN5CCN6c7cc(-c8cc(F)cc(F)c8O)nnc7NCC6C5)C4)cc3C2=O)C(=O)N1 [Example 49, 3-(6-(2-(((1R,5S,6s)-6-(((S)-2-(3,5-difluoro-2-hydroxyphenyl)-5,6,6a,7,9,10-hexahydro-8H-pyrazino[1′,2′:4,5]pyrazino[2,3-c]pyridazin-8-yl)methyl)-3-azabicyclo[3.1.0]hexan-3-yl)methyl)morpholino)-1-oxoisoindolin-2-yl)piperidine-2,6-dione] | < 100 | > 75 | < 100 | > 75 |  | 
